Measurements reported in ChEMBL document CHEMBL5241111, “Non-steroidal anti-inflammatory drugs: recent advances in the use of synthetic COX-2 inhibitors” (RSC Med Chem, 2022).
One block for each compound: values may come before it.

Assays:
[1] = Inhibition of soybean 5-LOX using linoleic acid as substrate preincubated for 5 mins followed by substrate addition and measured after 3 mins; design: species or system Glycine max
[2] = biological target: Alpha-glucosidase (Saccharomyces cerevisiae S288c, UniProt P53341+P38158+P07265); assay: Inhibition of Saccharomyces cerevisiae alpha-glucosidase using PNPG as substrate preincubated for 10 mins followed by substrate addition by spectrophotometric method; type: protein assay
[3] = biological target: T1, Prostaglandin G/H synthase 2 (Homo sapiens, UniProt P35354); assay: Inhibition of human COX-2 using arachidonic acid as substrate preincubated for 5 mins followed by substrate addition and measured after 2 mins by colorimetric assay
T1 sequence (P35354 whole entry): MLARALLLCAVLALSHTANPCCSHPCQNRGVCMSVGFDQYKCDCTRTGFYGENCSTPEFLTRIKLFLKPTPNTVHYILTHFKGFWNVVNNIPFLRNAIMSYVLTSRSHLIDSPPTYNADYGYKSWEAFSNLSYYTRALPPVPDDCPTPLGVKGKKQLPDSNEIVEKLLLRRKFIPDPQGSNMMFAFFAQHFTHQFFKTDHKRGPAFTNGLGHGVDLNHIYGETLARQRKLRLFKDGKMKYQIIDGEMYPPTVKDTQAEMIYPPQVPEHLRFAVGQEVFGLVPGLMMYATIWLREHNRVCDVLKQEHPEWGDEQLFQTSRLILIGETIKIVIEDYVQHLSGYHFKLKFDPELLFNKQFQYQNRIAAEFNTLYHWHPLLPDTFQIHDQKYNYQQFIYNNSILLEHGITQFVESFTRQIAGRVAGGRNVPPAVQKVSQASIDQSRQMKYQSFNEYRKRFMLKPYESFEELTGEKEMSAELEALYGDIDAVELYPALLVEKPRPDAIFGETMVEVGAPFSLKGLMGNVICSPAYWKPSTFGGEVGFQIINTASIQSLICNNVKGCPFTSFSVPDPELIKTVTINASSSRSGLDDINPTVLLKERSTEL

[4] = biological target: cGMP-specific 3',5'-cyclic phosphodiesterase (Homo sapiens) (UniProt O76074); assay: Inhibition of human PDE5 using cGMP as substrate at 10 uM preincubated for 5 mins followed by substrate addition and measured after 30 mins by HPLC analysis relative to control; details: time 35.0 min
[5] = biological target: T2, Polyunsaturated fatty acid 5-lipoxygenase (Homo sapiens, UniProt P09917); assay: Inhibition of 5-LOX (unknown origin)
T2 sequence (P09917 whole entry): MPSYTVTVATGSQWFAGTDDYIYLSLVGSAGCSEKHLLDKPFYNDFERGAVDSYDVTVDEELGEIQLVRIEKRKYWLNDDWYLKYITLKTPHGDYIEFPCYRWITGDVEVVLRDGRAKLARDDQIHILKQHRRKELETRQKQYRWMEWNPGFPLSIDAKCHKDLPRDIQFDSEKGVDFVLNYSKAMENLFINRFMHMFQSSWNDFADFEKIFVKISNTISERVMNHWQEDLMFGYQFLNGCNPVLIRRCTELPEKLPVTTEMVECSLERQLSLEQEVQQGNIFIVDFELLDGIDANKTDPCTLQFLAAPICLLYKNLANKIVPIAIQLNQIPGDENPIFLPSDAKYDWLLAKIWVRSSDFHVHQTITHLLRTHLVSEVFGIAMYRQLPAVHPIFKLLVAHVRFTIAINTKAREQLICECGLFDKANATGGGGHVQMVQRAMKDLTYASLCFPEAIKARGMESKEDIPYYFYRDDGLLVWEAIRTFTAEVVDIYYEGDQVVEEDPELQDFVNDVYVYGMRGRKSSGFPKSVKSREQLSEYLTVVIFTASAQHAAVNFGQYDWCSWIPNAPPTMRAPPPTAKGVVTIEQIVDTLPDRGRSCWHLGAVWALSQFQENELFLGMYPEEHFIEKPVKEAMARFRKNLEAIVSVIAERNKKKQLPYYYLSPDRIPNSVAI

[6] = biological target: T1, Prostaglandin G/H synthase 2; assay: Inhibition of human COX-2 using arachidonic acid as substrate preincubated for 10 mins followed by substrate addition and measured after 30 secs by ELISA
[7] = biological target: T3, Dihydrofolate reductase (Homo sapiens, UniProt P00374); assay: Inhibition of DHFR (unknown origin)
T3 sequence (P00374 whole entry): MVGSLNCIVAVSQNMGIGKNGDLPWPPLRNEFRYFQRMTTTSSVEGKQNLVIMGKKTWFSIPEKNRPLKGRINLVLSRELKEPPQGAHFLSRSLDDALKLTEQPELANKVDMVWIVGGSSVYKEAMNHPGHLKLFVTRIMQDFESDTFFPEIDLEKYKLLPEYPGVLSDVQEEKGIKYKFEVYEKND

[8] = biological target: COX-1/COX-2 (Homo sapiens) (UniProt P35354+P23219); assay: Selectivity index, ratio of IC50 for inhibition of COX-1 (unknown origin) to IC50 for inhibition of COX-2 (unknown origin); type: protein assay
[9] = biological target: T1, Prostaglandin G/H synthase 2; assay: Inhibition of COX-2 (unknown origin)
[10] = biological target: T1, Prostaglandin G/H synthase 2; assay: Inhibition of human COX-2 using arachidonic acid as substrate incubated for 30 secs by ELISA
[11] = biological target: T1, Prostaglandin G/H synthase 2; assay: Inhibition of human recombinant COX-2 using arachidonic acid as substrate preincubated for 5 mins followed by substrate addition and measured after 10 mins by microplate reader analysis

Structure (SMILES): CC(=O)Oc1cc2oc(-c3cccc(F)c3)cc2cc1-c1c[se]nn1
IC50 [2]: 1.03 µM

Structure (SMILES): CC1=c2c(OCc3nnc(SCC(=O)N4CCN(c5ccccc5)CC4)o3)nn(C)c(=O)c2=C(C)C1c1ccccc1 (stereo not drawn)
IC50 [3]: 6.8 µM

Structure (SMILES): C/C(=C/C(=O)Nc1nccs1)Nc1ccc(Cl)cc1
inhibition [4]: 100%

Structure (SMILES): O=c1[nH]n2c(=O)c3ccccc3nc2/c1=C/c1ccc(Br)cc1
IC50 [5]: 0.6 µM
IC50 [6]: 0.047 µM

Structure (SMILES): O=c1[nH]n2c(=O)c3ccccc3nc2/c1=C/c1ccc(F)cc1
IC50 [5]: 0.6 µM
IC50 [6]: 0.047 µM

Structure (SMILES): C/C(=C/C(=O)Nc1nccs1)Nc1ccccc1
inhibition [4]: 100%

Structure (SMILES): COc1ccc(N/C(C)=C\C(=O)Nc2nccs2)cc1
inhibition [4]: 100%

Structure (SMILES): CC1=c2c(OCc3nnc(SCC(=O)N4CCN(c5ncccn5)CC4)o3)nn(C)c(=O)c2=C(C)C1c1ccccc1 (stereo not drawn)
IC50 [3]: 6.8 µM

Structure (SMILES): CC(=O)N1N=C(c2nnn(-c3ccc(S(N)(=O)=O)cc3)c2C)CC1c1ccccc1 (stereo not drawn)
Ratio IC50 [8]: 1.95
IC50 [9]: 2.61 µM

Structure (SMILES): C/C(=N\NC(=O)c1nnn(-c2ccc(S(N)(=O)=O)cc2)c1C)c1nnn(-c2ccc(S(N)(=O)=O)cc2)c1C
Ratio IC50 [8]: 1.95
IC50 [9]: 2.61 µM

Structure (SMILES): O=Cc1cn(-c2ccc(Br)cc2)nc1-c1ccc(Br)cc1
Ratio IC50 [8]: 0.008
IC50 [10]: 0.017 µM

Structure (SMILES): CC(=O)Oc1cc2oc(-c3ccccc3)cc2cc1-c1c[se]nn1
IC50 [2]: 1.03 µM

Structure (SMILES): NS(=O)(=O)c1ccc(C(=O)OCCn2cc(-c3ccc(C(F)(F)F)cc3)nn2)cc1
Ratio IC50 [8]: 0.008
IC50 [10]: 0.131 µM

Structure (SMILES): CC1=NN(c2ccc(S(N)(=O)=O)cc2)C(=O)/C1=C\c1sccc1C
IC50 [11]: 0.15 µM

Structure (SMILES): Cc1c(C2=NNC(c3ccccc3)C2)nnn1-c1ccc(S(N)(=O)=O)cc1 (stereo not drawn)
Ratio IC50 [8]: 1.95
IC50 [9]: 2.61 µM

Now from value to compound:

IC50 [1]: 48.9 µM
Structure (SMILES): COc1ccc2cc([C@H](C)C(=O)N[C@@H](Cc3c[nH]c4ccccc34)C(=O)N/C(=C\c3ccccc3)C(=O)O)ccc2c1

IC50 [1]: 48.9 µM
Structure (SMILES): COc1ccc2cc([C@H](C)C(=O)N[C@@H](Cc3ccc(O)cc3)C(=O)N/C(=C\c3ccccc3)C(=O)O)ccc2c1

IC50 [5]: 0.6 µM
IC50 [6]: 0.047 µM
Structure (SMILES): COc1ccc(/C=c2\c(=O)[nH]n3c(=O)c4ccccc4nc23)cc1OC

IC50 [7]: 0.28 µM
Structure (SMILES): COc1cc(/C=C2\N=C(c3ccccc3)N(c3ccc(C(=O)O)cc3)C2=O)ccc1OC(=O)c1ccccc1

IC50 [1]: 48.9 µM
Structure (SMILES): COC(=O)/C(=C/c1ccccc1)NC(=O)[C@H](Cc1ccc(O)cc1)NC(=O)[C@@H](C)c1ccc2cc(OC)ccc2c1

IC50 [1]: 48.9 µM
Structure (SMILES): COc1ccc2cc([C@H](C)C(=O)N[C@@H](C)C(=O)N/C(=C\c3ccccc3)C(=O)O)ccc2c1

Ratio IC50 [8]: 1.95
IC50 [9]: 2.61 µM
Structure (SMILES): C/C(=N\NC(=O)c1nnn(-c2ccc(S(N)(=O)=O)cc2)c1C)c1cc2ccccc2o1

IC50 [5]: 0.6 µM
IC50 [6]: 0.047 µM
Structure (SMILES): COc1ccc(/C=c2\c(=O)[nH]n3c(=O)c4ccccc4nc23)cc1

IC50 [2]: 1.03 µM
Structure (SMILES): COc1ccc(-c2cc3cc(-c4c[se]nn4)c(OC(C)=O)cc3o2)cc1

IC50 [5]: 0.6 µM
IC50 [6]: 0.047 µM
Structure (SMILES): O=c1[nH]n2c(=O)c3ccccc3nc2/c1=C/c1ccccc1

IC50 [7]: 0.28 µM
Structure (SMILES): COc1cc(/C=C2\N=C(c3ccccc3)N(c3ccc(S(N)(=O)=O)cc3)C2=O)ccc1OC(=O)c1ccccc1

Ratio IC50 [8]: 1.95
IC50 [9]: 2.61 µM
Structure (SMILES): Cc1c(C(=O)NNC(=S)Nc2ccccc2)nnn1-c1ccc(S(N)(=O)=O)cc1

IC50 [1]: 48.9 µM
Structure (SMILES): COC(=O)/C(=C/c1ccccc1)NC(=O)[C@H](CC(=O)O)NC(=O)[C@@H](C)c1ccc2cc(OC)ccc2c1

IC50 [1]: 48.9 µM
Structure (SMILES): C/C=C(\NC(=O)[C@H](Cc1c[nH]c2ccccc12)NC(=O)[C@@H](C)c1ccc2cc(OC)ccc2c1)C(=O)OC

IC50 [5]: 0.6 µM
IC50 [6]: 0.047 µM
Structure (SMILES): O=c1[nH]n2c(=O)c3ccccc3nc2/c1=C/c1ccc(Cl)cc1
